[mp] = methylphosphonate linkage
Legend:
[1] = system: complementary synthetic RNA targets; assay: Binding stability of backbone modified (CT)7A oligomers to RNA (Example 34)
[2] = system: complementary synthetic RNA target; assay: Hybridization of chirally enriched and non-chiral oligomers to RNA targets (Example 32); assay type: binding; conditions: 1:1 with RNA, midpoint of sigmoidal transition at 260 nm
Experimental: Chirally enriched all-pyrimidine (C*T)7 A and all-purine (A*G)7 T MP-oligomers were prepared using either Rp - or Sp -dimeric units. Control oligomers were also prepared using the individual monomeric units. The asterisks indicate the positions of defined chirality.
Each oligomer was annealed to a complementary synthetic RNA target and then monitored by absorbance at 260 nm as a function of temperature. Sigmoidal transitions were observed corresponding to thermal denaturation of the hybridization complexes. The Tm values were determined at the midpoint of each sigmoidal transition. […] Thus, we anticipated that the data for each chirally enriched series would be applicable to double-stranded and triple-stranded MP/RNA helices, respectively.

[3] = system: complementary RNA targets; assay: Tm of Rp-enriched versus racemic methylphosphonate oligomers with RNA (Example 33); assay type: binding; conditions: 2.4 μM total strand concentration, pH 7.2, 100 mM sodium chloride

## 2288-1: 5'-CT-CT-CT-CT-CT-CT-CT-A-3', racemic all-MP (CTCTCTCTCTCTCTA; all [mp], sugars by position and methylation of C not given here) [Oligomer 2288-1]
[1]; 2.4 μM total strand concentration, pH 7.2, 100 mM sodium chloride
  TM: 34.0 °C
[1]; 37° C., two-state model fit of thermal dissociation data
  K (37° C.) (binding constant KA): 8.3 × 10^5
[2]
  Tm (1:1, RNA): 35.1 °C
[3]
  Tm: 34.4 °C

Reference: patent publication US6262036A, “Method for inhibiting RNA translation using chimeric oligonucleoside compounds” (priority 2000, dated 2001)
